Experimental data from US9796757B2, “Compositions and method for treating thrombosis” (The Board of Trustees of the University of Illinois, priority 2013, dated 2017).
No end group written: not given here. *: point of attachment. Myristoyl = CCCCCCCCCCCCCC(=O)*

Tests used:
[1] = tested on: lung ECs; test: ex vivo isolated buffer-perfused mouse lung vWF secretion (ELISA of perfusate)
Method: Anesthetized GNA12^−/−, GNA12^−/−/EC GNA13^−/−, GNAq^−/−, and GNAq^−/−/EC GNA11^−/− mice were instrumented with a tracheal tube, cannulated via pulmonary artery, and perfused with warmed Krebs buffer at a rate of 1 ml/min for 5 minutes to remove residual blood constituents followed by treatment for 20 minutes with 2 ml recirculating Krebs buffer to assess constitutive vWF secretion. […] Following lung perfusion, lungs were minced and snap-frozen in liquid nitrogen for subsequent determination of whole lung extract vWF levels.
(§1) Mouse samples were collected and vWF level was measured by sandwich ELISA (Lu, et al. (2011) supra). One unit of vWF was defined as the amount present in 1 ml of mouse pooled normal plasma.
To address the role of G protein α subunits in constitutive (basal, spontaneous) vs. PAR-1-mediated vWF secretion from endothelial cells, vWF was measured in the ex vivo isolated buffer-perfused mouse lung (IPML). Lung preparations were used to exclude platelets as a source of vWF and also hepatic stellate cells as contributors of proteases that cleave ultra large vWF strings (Lenting, et al. (2012) supra). Ventilated WT, Gα12^−/−, and EC-Gαq^−/−; Gα11^−/− mouse lungs were cannulated and perfused with warmed recirculating RPMI media via pulmonary artery and left atrial catheters in situ. To assess basal vWF secretion, precleared blood-free lungs were perfused for 15 minutes with […] of 37° C. recirculating RPMI media (approximately the same volume as the normal mouse blood volume). Samples of the recirculating buffer were collected at 5 minute intervals over a period of 30 minutes and vWF (mU/ml perfusate) was measured by ELISA.
To assess the mechanism of thrombin-induced vWF release from ECs via PAR-1 activation, the PAR-1-specific synthetic peptide Thr-Phe-Leu-Leu-Arg (SEQ ID NO:3) was used to stimulate lung ECs. […] The initial slope of the vWF secretion curve was used to estimate the rate of vWF release following addition of Thr-Phe-Leu-Leu-Arg (SEQ ID NO:3), which was approximately 25 mU/mL/min in WT mouse lungs. […] Under these same conditions, basal vWF secretion in the pulmonary circulation of EC-Gαq^−/−; Gα11^−/− lungs was not different from that observed in WT mice, although Thr-Phe-Leu-Leu-Arg (SEQ ID NO:3)-induced vWF release was reduced by approximately 40%. […] The presence of EC WPB vWF in en face descending aorta and paraffin-embedded lung sections was verified by immunostaining and confocal microscopy. WT, Gα12^−/−, and Gα11^−/− tissues stained positive for vWF consistent with there being equivalent vWF synthesis and storage in WPBs in WT, Gα12^−/−, and Gα11^−/− mice.

[2] = tested on: HUVEC; test: vWF immunostaining / WPB quantification by confocal microscopy in HUVEC; format: cell-based, human
Method: Endothelial cells cultured on gelatin-coated glass bottom dishes were fixed with 4% paraformaldehyde, permeabilized with 0.1% TRITON X-100, blocked with 5% goat serum for 1 hour, and subsequently incubated with rabbit polyclonal antibody directed against vWF (0.5 μg/ml) or contral IgG overnight at 4° C. Coverslips were washed 3× with phosphate-buffered saline and incubated for 30 minutes at room temperature in the dark with ALEXAFLUOR 555 goat anti-mouse and ALEXAFLUOR 488-labeled goat anti-rabbit secondary antibody. Coverslips were washed with phosphate-buffered saline and embedded in mounting media (VECTASHIELD). Confocal microscopy was performed using a ZEISS LSM 510 Meta microscope (Carl Zeiss MicroImaging, Inc.) equipped with 488 nm and 543 nm excitation lasers and pinhole set to achieve 1 Airy unit.
Weibel-Palade Bodies (WPBs) were identified based on vWF immunofluorescence staining, size (approximately 3 μm long and 0.3 μm wide), and shape (elongated organelles). […] The number of WPBs per cell was counted (n=10-30) and the average fluorescence intensity per WPB/cell determined.
To distinguish whether the inhibitory effect of Gα12 depletion on vWF secretion is due to inhibition of vWF secretion as opposed to impaired vWF production or storage, vWF immunostaining and confocal microscopy of control siRNA and Gα12 siRNA-treated HUVECs was performed in presence or absence of thrombin stimulation.
To elucidate the role of Gα12 in WPBs exocytosis, HUVEC were transfected with constitutively-active GFP-tagged Gα12^Q229L mutant, GFP-tagged Gα12^WT, or GFP alone, and then confocal images of vWF immunostaining were quantified.
The role of Gα12/αSNAP interactions in regulation of vWF secretion was analyzed using a two-step experimental approach. First, a library of Gα12-substitution mutants (Meigs, et al. (2005) J. Biol. Chem. 280(18):18049-18055) was used, in which the primary sequence of Gα12 was replaced with the Asn-Ala-Ala-Ile-Arg-Ser (SEQ ID NO:5; NAAIRS cassette) to assess domain-specific in vitro binding of Myc-tagged Gα12^Q229L with or without ‘NAAIRS’ substitution of N-terminal amino acids 4-9 (ΔN4-9) or 10-15 (ΔN10-15) to GST-αSNAP. […] Secondly, to assess the role of Gα12 interaction with α-SNAP in vWF secretion, a GFP-tagged α-SNAP Binding Domain (aa 10-15) minigene (GFP-SBD) was constructed based on the identified Gα12•GST-αSNAP interaction.

[3] = tested on: HPAEC; test: vWF secretion assay and ELISA in HPAEC; format: cell-based, human; conditions: peptide 1 μM, 1 hour pre-incubation, ELISA (FIG. 2), listed as Myr-SBD peptide
Method: vWF secretion assay was as previously described (Lui-Roberts, et al. (2005) J. Cell Biol. 170:627-636). In brief, 48 hours after transfection, endothelial cells were serum-deprived for 4 hours, washed, and incubated with fresh serum-free medium in presence or absence of 25 nM thrombin, A23187 (a calcium ionophore), or culture medium alone (vehicle control). Cell culture media was collected at various time points after agonist stimulation and centrifuged for 10 minutes at 13,000×g to remove cell debris. Supernatants were assayed for vWF content by ELISA. Cells were lysed to determine total vWF secreted per 10^6 cells. The concentration of vWF was expressed as mIU/ml/10^6 cells by relating the absorbance at 450 nm to a vWF standard curve. […] To prevent potential differences in releasable vWF, the same batch of HUVEC was used for all experiments, and control and siRNA treated cells were assessed at equivalent cell densities.
The role of G protein signaling in basal vs. PAR1-stimulated vWF secretion from confluent, low passage, and serum-deprived HUVECs and HPAECs was subsequently determined. […]
It was determined whether Gα12 interaction with αSNAP plays an important role in both basal and evoked VWF secretion from endothelial cell WPBs in vitro and in vivo. […] The effect of Gα12 and Myr-SBD on vWF secretion was assessed as was mortality associated with CLP/sepsis in rodent models. […]

[4] = tested on: plasma vWF; test: plasma vWF after CLP or SHAM surgery in mice; format: in vivo; conditions: 24 hours after SHAM or CLP surgery, i.v. 100 μl of 100 μM (~5 μM) at time of surgery, vs Myr-Scrambled peptide, n=3/group
Method: Mice were anaesthetized by ketamine/xylazine as above and ventilated according to conventional methods. […] Plasma was prepared from citrated blood samples via centrifugation at 3,000×g for 15 minutes at room temperature and stored at −80° C. until vWF measurement by ELISA. The anesthetized mouse was then euthanized for lung tissue collection as described below.
as §1
It was determined whether Gα12 interaction with αSNAP plays an important role in both basal and evoked VWF secretion from endothelial cell WPBs in vitro and in vivo. Myr-SBD peptide (1 μM; 1 hour pre-incubation) blocked both basal VWF secretion and that evoked by thrombin stimulation of HPAEC (FIG. 2). The effect of Gα12 and Myr-SBD on vWF secretion was assessed as was mortality associated with CLP/sepsis in rodent models. […] Importantly, reduced plasma vWF levels (FIG. 3B) were observed 24 hours after SHAM or CLP surgery in mice given 100 μl of 100 μM Myr-SBD (˜5 μM) as compared to mice treated with Myr-Scrambled peptide.

[5] = tail-snip blood loss (primary hemostasis); format: in vivo; conditions: EC-Gα13−/−; Gα12−/− mice; i.v. 2 μg/g BW
Method: Mice were anaesthetized using 100 mg/kg ketamine and 5 mg/kg xylazine. Once unresponsive to tail pinch, 3-5 mm of the end of the tail was removed with a scalpel, the tail was immersed in 0.9% saline solution (37° C.), and time required for bleeding to stop was recorded (n=10 male mice/group, age 8-12 weeks) according to established methods (Lu, et al. (2011) Cell Res. 21:530-545). If no cessation of bleeding occurred after 30 minutes, the tail was cauterized with a cautery pencil and 30 minutes was recorded as the bleeding time. Blood loss during the bleeding time experiments was expressed as the accumulated amount of hemoglobin (Hb) bled into the container with phosphate-buffer saline in which tails were immersed. Hb (mg Hb/mL saline) was analyzed over the period of the experiment, using Hemocue HB201+ (Hemocue; Cypress, Calif.). Mice were allowed to recover in a clean cage. […]
Using megakaryocyte-restricted-Gα12/13 double knockout mice, it has been observed that Gα13-dependent signaling in platelets is important for hemostasis and thrombosis (Moers, et al. (2003) Nat. Med. 9(11):1418-1422). However, the molecular mechanisms and functional significance of endothelial cell Gα12 and Gα13 in primary hemostasis were not assessed. […] Hb accumulation from the cut tail immersed in saline solution was measured every 5 minutes for 15 minutes. […]

Molecule: CCN1C(=O)C=CC1=O [NEM, N-Ethylmaleimide]
- vWF secretion ([1]; 1 mM added to recirculating lung perfusion system for 1 minute): abolished

Molecule: GFP-SBD: GFP-tagged α-SNAP Binding Domain (aa 10-15) minigene expressed in HUVEC (RCLLPA; not fully specified; also: GFP-tagged minigene (fusion))
- thrombin-induced WPB exocytosis ([2]; GFP-SBD minigene expressed in HUVEC): inhibited
- intracellular vWF staining following thrombin stimulation ([2]; GFP-SBD-expressing HUVECs, control GFP cells significantly reduced (FIG. 1)): remained unchanged

Molecule: Myr-Arg-Cys-Leu-Leu-Pro-Ala (Myristoyl-RCLLPA) [Myr-SBD]
- basal VWF secretion [3]: blocks
- thrombin-evoked VWF secretion ([3]; thrombin stimulation): blocks
- plasma vWF levels [4]: reduced

Molecule: Thr-Phe-Leu-Leu-Arg (TFLLR) [Thr-Phe-Leu-Leu-Arg (SEQ ID NO:3)]
- reduction of peptide-induced vWF release vs WT ([1]; EC-Gαq−/−, Gα11−/− mouse lungs): approximately 40%
- rate of vWF secretion ([1]; Gα12−/− mouse lungs, 30 μM peptide in recirculating perfusate): 3 mU/mL/min
- time to peak vWF level in perfusate ([1]; WT mice, 30 μM peptide, remained constant for up to 1 hour): 10 to 15 min
- rate of vWF release (initial slope of vWF secretion curve) ([1]; WT mouse lungs, 30 μM peptide in recirculating perfusate): approximately 25 mU/mL/min

Molecule: purified human plasma-derived vWF: purified human plasma-derived von Willebrand factor
- hemostasis (tail-snip blood loss) [5]: corrected

Molecule: thrombin
- GFP-positive control cells showing reduced vWF positive WPBs ([2]; HUVEC transfected with GFP alone, 25 nM thrombin for 15 minutes): 80%
- decrease in intracellular vWF staining ([2]; control siRNA HUVEC, thirty minutes after thrombin treatment): > 80%
